Source: paper PMC12040169 (PLOS Biology, 2025)

Assay: in vitro
Conditions: human, hela cells, % viability

In order of rising viability at 28.5 h, 10 µM:
1. COc1ccc([N+](=O)[O-])cc1-c1ccc(-c2nc(-c3ccccc3)c(-c3ccccc3)[nH]2)o1 [CBK262497]  77.3%
2. Cc1cc(NC(=O)C(C)(C)C)nc2c1c(=O)oc1ccccc12 [CBK287443]  78.7%
3. CCn1c(=O)oc2cc(NC(=O)NCCCc3csc(N)n3)ccc21 [CBK307633]  79.7%
4. O=C(NC1CCN(Cc2cc(F)cc(F)c2)CC1)c1cn2ccsc2n1 [CBK306970]  80%
5. O=C(Nc1cccc2cc[nH]c12)c1cc(F)c(Cl)cc1F [CBK160080]  82.4%
6. CS(=O)(=O)N1CCCC(C(=O)Nc2ccc(S(N)(=O)=O)cc2)C1 (stereo not shown) [CBK268490]  83%
7. c1ccc(-c2nc3sc4c(ncn5cnnc45)c3c3c2CCC3)cc1 [CBK269566]  84.3%
8. CCCNC(=O)N1CCC(n2cnc3cccnc32)CC1 [CBK282282]  84.3%
9. CCOc1ccc(S(=O)(=O)N2CCCN(Cc3cccc(C(F)(F)F)c3)CC2)c2cccnc12 [CBK062760]  84.3%
10. CCc1ccc(NC(=O)CN(CCO)Cc2cc(Br)ccc2F)cc1 [CBK305968]  84.8%
11. COc1ccc(C2(NC(=O)c3cnn(C)c3C)CCCCC2)cc1 [CBK283731]  84.8%
12. COc1ccc(-c2csc(CC(=O)O)n2)cc1 [CBK159469]  85.4%
13. CC(Cc1nc(C2(Cl)CC2)cs1)n1cc(Cl)cn1 (stereo not shown) [CBK304715]  85.5%
14. OC12CCCCC1CN(CC1=Cc3ccccc3OC1)CC2 (stereo not shown) [CBK282954]  86.3%
15. S=C(NCc1cccs1)NC1CC1 [CBK008520]  86.4%
16. CC(C)(C)NC(NC(=O)Cc1ccccc1)C(Cl)(Cl)Cl (stereo not shown) [CBK261090]  86.5%
17. Cc1cc(-c2cn3cc(C(=O)N4CCCCC4)nc3c(=O)n2C)c(C)o1 [CBK306890]  86.6%
18. Cc1ccc(C2=CCN(CC(=O)N3CCCCC3C)CC2)o1 (stereo not shown) [CBK283556]  86.8%
19. O=C(/C=C/c1ccc2c(c1)OCO2)Nc1ccc(S(=O)(=O)Nc2cnc3ccccc3n2)cc1 [CBK265445]  86.9%
20. Cc1ccc(CCC(=O)N(CCC#N)C2CCOCC2)c(C)c1 [CBK305809]  87.4%
21. N#Cc1ccc(NC(=O)Nc2ccccc2)cc1 [CBK086045]  87.8%
22. Cc1ccc(C(=O)NCc2nc3ccccc3[nH]2)c(N2CCOCC2)n1 [CBK106200]  88.4%
23. Cc1nc(CNC(=O)c2nn(-c3cccc(C(C)C)c3)cc2O)no1 [CBK305269]  89%
24. CCN(CC(=O)N1CCN(C)CC1)S(=O)(=O)c1ccc(OC)cc1 [CBK269374]  89.2%
25. Cc1ccc(-c2nnc([C@H]3CCN(Cc4ccc(CO)o4)C3)o2)cc1 [CBK289399]  90%
26. O=C(N1CCOCC1)C12CC3CC(CC(C3)C1)C2 [CBK089368]  90.3%
27. CC(=O)Nc1ccc(S(=O)(=O)N(c2ccc(C(C)(C)C)cc2)C2CCNCC2)cc1 [CBK165062T]  90.4%
28. Cc1cccnc1C(c1ccc(F)cc1)N(C)C(=O)C1CCN(CCc2ccc(Br)cc2)CC1 (stereo not shown) [CBK148397]  90.5%
29. Cc1ccc2[nH]c(Cc3ccc(NC(=O)CCC4C(=O)Nc5ccccc54)cc3)nc2c1 (stereo not shown) [CBK285824]  91%
30. Cc1onc(-c2ccccc2)c1C(=O)NNC(=S)NC(=O)c1ccc(Cl)cc1 [CBK267493]  91.1%
31. CCOc1ccc(S(=O)(=O)N(CC)CC(=O)O)cc1C [CBK269770]  91.5%
32. COCCc1nsc(N2CCCC(c3nccs3)C2)n1 (stereo not shown) [CBK305110]  92%
33. CCNc1cncc(-c2ccc(OC)cc2)n1 [CBK065370]  92.1%
34. COc1cc(NC(=O)CCN2CCN(C)CC2)cc(OC)c1 [CBK264193]  92.5%
35. O=C(c1cnn2cccnc12)N1CCc2[nH]c3ccccc3c2C1 [CBK281874]  93%
36. c1ccc(-c2cc(-c3ccccc3)n3nc(Cc4nc5nc(-c6ccccc6)cc(-c6ccccc6)n5n4)nc3n2)cc1 [CBK261017]  93.1%
37. C[C@H](Nc1nccnc1-c1ccco1)c1ccccc1 [CBK037032]  93.1%
38. COc1ccc(CCN(CCN2CCOCC2)C(=O)NCc2ccc3c(c2)OCO3)cc1OC [CBK160540]  93.3%
39. COc1nccnc1OC1CCN(CCc2c[nH]c3ccccc23)CC1 [CBK084261]  93.6%
40. C=CCNC(=O)C[C@@H]1CCN(C(=O)c2ccnc(Cl)c2)C[C@@H]1CC [CBK289136]  94.3%
41. CC(C)(C)NC(=O)CN1CCN(C(=O)CSc2n[nH]c(=O)n2C2CC2)CC1 [CBK295641]  94.5%
42. O=C(Cn1c(-c2cccs2)n[nH]c1=S)N1CCC(c2nc3cc(Cl)ccc3o2)CC1 [CBK297765]  95%
43. O=C(Nc1ccc(S(=O)(=O)NCc2ccccc2)cc1)Nc1ccc2c(c1)OCO2 [CBK268186]  95.1%
44. COc1ccccc1/C=N/NC(=O)COc1c(Br)cc(Br)cc1Br [CBK261966]  95.2%
45. O=C(NC(=S)Nc1ccc2oc(-c3cccc4ccccc34)nc2c1)c1ccco1 [CBK263691]  95.5%
46. COc1ccc(-c2nc3cc(NC(=O)c4ccccc4Br)ccc3o2)cc1 [CBK264953]  95.5%
47. COc1cc(OC)cc(C(=O)OCc2ccc(F)cc2)c1 [CBK267996]  95.6%
48. N=C(N)NCc1ccc(Cl)cc1 [CBK002260]  95.7%
49. Cn1c(=O)n(CC(=O)N2CCC(C(=O)NC(c3ccccc3)c3ccccn3)CC2)c2ccccc21 (stereo not shown) [CBK060494]  96%
50. C=CCn1c(Cc2csc(NC(=O)Cc3ccc(Cl)cc3)n2)n[nH]c1=S [CBK295359]  96.3%
51. COc1cccc(C(c2ccccn2)N(C)C(=O)C2CCN(S(=O)(=O)c3c(C)noc3C)CC2)c1 (stereo not shown) [CBK060212]  96.4%
52. C[C@]12CN(Cc3ccccc3)C[C@H]1NC(=O)c1ccccc1C2=O [CBK284703]  96.5%
53. CN1CCC(N(CCO)CC2(c3ccc(Cl)cc3)CC2)CC1 [CBK282781]  96.6%
54. FC(F)(F)c1cccc(OCCN2CCOCC2)c1 [CBK269669C]  96.8%
55. COc1ccc(-c2cnn3c(N)c4c(nc23)CCC4)cc1 [CBK287987]  97.4%
56. OC1CCC(Nc2cncc(-c3cccc(F)c3)n2)CC1 (stereo not shown) [CBK065449]  97.8%
57. Clc1ccc(/C=N/Nc2nnn[nH]2)c(Cl)c1 [CBK262034]  98%
58. O=C(Nc1nc2ccccc2[nH]1)C1c2ccccc2Oc2ccccc21 [CBK265454]  98.9%
59. Cc1cc(C(=O)N2CCC(c3nc(C)n4c(C)csc34)CC2)on1 [CBK285247]  99.3%
60. COC(=O)c1sc(NC(=S)Nc2ccn(C)n2)c(C(=O)OC)c1C [CBK267078]  99.5%
61. COC(=O)c1ccc(NC(=O)c2c(Br)c(Br)c(Br)c(Br)c2C(=O)O)cc1 [CBK261321]  100%
62. CCN(Cc1ccccc1)C(=O)Nc1ccc2c(c1)OCCO2 [CBK155231]  100%
63. COc1ccc(Cl)cc1Nc1ncnc(N)n1 [CBK288195]  100%
64. COCOc1ccc(-c2nc(-c3cccs3)cnc2N)cc1 [CBK063977]  101%
65. O=C1c2ccccc2C(c2ccc(NC(=O)c3cccc4ccccc34)cc2)(c2ccc(NC(=O)c3cccc4ccccc34)cc2)c2ccccc21 [CBK261162]  103%
66. CCn1c(C(CC(C)C)NC(=O)C2CC2)nc2cccnc21 (stereo not shown) [CBK283736]  103%
67. CCCNC(=O)C[C@@H]1CCN(S(=O)(=O)c2c(C)noc2C)C[C@@H]1CC [CBK288780]  103%
68. CC(NC(=O)Cn1ccnc1-c1ccccc1)c1ccccn1 (stereo not shown) [CBK281885]  103%
69. Cc1cc(Cl)ccc1OC(C)C(=O)Nc1cc(C(=O)O)cc(C(=O)O)c1 (stereo not shown) [CBK266483]  103%
70. FC(F)(F)c1ccnc(SCCc2ccccn2)c1 [CBK103709]  105%
71. COc1ccccc1-c1noc(CSc2nnc(-c3ccccc3)n2-c2ccc(C)c(C)c2)n1 [CBK269058]  105%
72. O=C1CCC(=O)N1CCN1C(=O)C2(CC(=O)N(CCC(F)(F)F)C2=O)c2ccccc21 (stereo not shown) [CBK076031]  105%
73. COC(=O)c1sc(NC(=O)C2CC2)c(C#N)c1C [CBK026049]  107%
74. O=C(c1ccco1)N1Cc2nc[nH]c2C[C@H]1c1nc(-c2ccc3ccccc3c2)no1 [CBK288965]  108%
75. O=C1NC[C@@H](Cc2ccccc2)NC(=O)C2(C/C=C/COc3ccccc31)CCN(Cc1ncccc1F)CC2 [CBK292193]  111%
76. COC(=O)Nc1ncc(CN2C(=O)c3ccccc3C2=O)s1 [CBK268434]  111%
77. COc1cccc(C(c2nnnn2C(C)(C)C)N2CCN(c3cccc(Cl)c3)CC2)c1 (stereo not shown) [CBK141669]  112%
78. COc1cc(/C=C2/C(=O)N(c3nnn[nH]3)N=C2C)ccc1OC(=O)c1cccs1 [CBK266641]  112%
79. CC(C)C(=O)N(C)c1nnc(-c2cccnc2)s1 [CBK007554]  114%
80. COc1ccccc1-c1nccnc1OCCc1ccc(NC(C)=O)cc1 [CBK106815]  115%
81. CC(=O)CSc1nnc(COc2ccc(C3CCCCC3)cc2)n1-c1ccccc1 [CBK265026]  116%
82. CCNC(=O)N1C(CC(=O)OCC)C(=O)NC2CCCCC21 (stereo not shown) [CBK268030]  116%
83. Brc1cn2ccnc2c(N2CCCC2)n1 [CBK085449]  117%
84. Cc1ccc(C(=O)CSc2nc(O)c3nc[nH]c3n2)cc1 [CBK300520]  119%

Same assay, conditions: human, hela cells, % viability, bulk resorufin, single well

In order of rising viability at 28.5 h, 10 µM:
1. CNC(Cc1ccccc1)c1ccccc1OC (stereo not shown) [CBK011943C]  88.6%
2. Clc1cccc(N2CCNCC2)n1 [CBK001379]  95.3%
3. O=C1NC(=O)C(=Cc2cccc(OCCOc3ccc([N+](=O)[O-])cc3)c2)C(=O)N1 [CBK126857]  95.7%
4. CCOC(=O)C1CCN(/C=C2/C(=O)NC(=S)N(c3ccccc3F)C2=O)CC1 [CBK265142]  102%
